# Measurements: patent US11053253B2, “Macrocyclic compounds for treatment of medical disorders” (Achillion Pharmaceuticals, Inc., priority 2017, dated 2021)
# pIC50: −log10 of the molar value.
# Molecular target: Human Factor D (Homo sapiens (Human), UniProt P00746)
# Assay: Human Factor D Assay
# Assay type: biochemical
# Settings: Human Factor D 80 nM, substrate Z-L-Lys-SBzl, DTNB, A405; read-out: IC50 (Stars)
# How it was run: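 Serum-purified enzyme (80 nM final) was preincubated with compound 5 min at room temperature in 50 mM Tris, 1M NaCl, pH 7.5. Z-L-Lys-SBzl and DTNB ([…] each, final) were added and A405 followed every 30 s for 30 min; IC50 from nonlinear regression of reaction rates.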
# Chain of Human Factor D (P00746 26-253): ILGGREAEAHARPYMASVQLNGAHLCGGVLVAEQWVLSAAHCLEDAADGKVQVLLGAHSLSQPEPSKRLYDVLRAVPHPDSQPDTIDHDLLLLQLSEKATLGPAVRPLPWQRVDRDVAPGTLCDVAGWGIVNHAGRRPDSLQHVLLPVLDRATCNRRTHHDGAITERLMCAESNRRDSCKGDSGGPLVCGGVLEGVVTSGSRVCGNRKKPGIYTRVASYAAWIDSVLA
row,Structure (SMILES),pIC50
1,CC(=O)c1nn2c3c(cc(-c4cnc(C)nc4)cc13)CC=CCCCC(=O)NC[C@@]13C[C@@H](C(=O)NCc4cccc(Cl)c4F)N(C(=O)C2)[C@@H]1C3 [Compound T-82],> 6.00
2,CC(=O)c1nn2c3c(cc(-c4cnc(C)nc4)cc13)CC=CCCCC(=O)NC[C@@]13C[C@@H](C(=O)Nc4nc(Br)c(F)cc4C)N(C(=O)C2)[C@@H]1C3 [Compound T-84],> 6.00
3,CC(=O)c1nn2c3c(cc(-c4cnc(C)nc4)cc13)CCCCCCC(=O)NC[C@@]13C[C@@H](C(=O)Nc4nc(Br)c(F)cc4C)N(C(=O)C2)[C@@H]1C3 [Compound T-85],> 6.00
4,CC(=O)c1nn2c3c(cc(-c4cnc(C)nc4)cc13)CCCCCCC(=O)NC[C@@]13C[C@@H](C(=O)NCc4cccc(Cl)c4F)N(C(=O)C2)[C@@H]1C3 [Compound T-86],> 6.00
5,CC(=O)c1nn(CC(=O)N2[C@H]3C[C@@]4(CCCCCCCOCc5ccc(Br)nc5NC3=O)C[C@@H]24)c2c(CF)cc(-c3cnc(C)nc3)cc12 [Compound T-87],> 6.00
6,CC(=O)c1nn(CC(=O)N2[C@H]3C[C@@]4(CCCCCCCOCc5ccc(Br)nc5NC3=O)C[C@@H]24)c2cnc(-c3cnc(C)nc3)cc12 [Compound T-88],> 6.00
7,CC(=O)c1nn(CC(=O)N2[C@H]3C[C@@]4(CCCC=CCOCc5ccc(Br)nc5NC3=O)C[C@@H]24)c2c(CF)cc(-c3cnc(C)nc3)cc12 [Compound T-89],> 6.00
8,CC(=O)c1nn2c3c(cc(-c4cnc(C)nc4)cc13)CCCCCCC(=O)NC[C@@]13C[C@@H](C(=O)Nc4cc(F)cc(Br)n4)N(C(=O)C2)[C@@H]1C3 [Compound T-90],> 6.00
9,CC(=O)c1nn2c3c(cc(-c4cnc(C)nc4)cc13)CC=CCCCC(=O)NC[C@@]13C[C@@H](C(=O)Nc4ccn(CC(F)(F)F)n4)N(C(=O)C2)[C@@H]1C3 [Compound T-91],> 6.00
10,CC(=O)c1nn2c3c(cc(-c4cnc(C)nc4)cc13)CCCCCCC(=O)NC[C@@]13C[C@@H](C(=O)Nc4ccn(CC(F)(F)F)n4)N(C(=O)C2)[C@@H]1C3 [Compound T-92],> 6.00
11,CC(=O)c1nn2c3c(cc(-c4cnc(C)nc4)cc13)CCCCCCC(=O)N(C)C[C@@]13C[C@@H](C(=O)Nc4nc(C(F)(F)F)ccc4C)N(C(=O)C2)[C@@H]1C3 [Compound T-93],> 6.00
12,CC(=O)c1nn2c3c(cc(-c4cnc(C)nc4)cc13)CC=CCCCC(=O)NC[C@@]13C[C@@H](C(=O)NCc4cccc(Cl)c4)N(C(=O)C2)[C@@H]1C3 [Compound T-94],> 6.00
13,CC(=O)c1nn2c3c(cc(-c4cnc(C)nc4)cc13)CCCCCCC(=O)NC[C@@]13C[C@@H](C(=O)NCc4cccc(Cl)c4)N(C(=O)C2)[C@@H]1C3 [Compound T-95],> 6.00
14,CC(=O)N[C@@H]1CC=CCOCc2ccc(Br)nc2NC(=O)[C@@H]2C[C@]3(C[C@H]3N2C(=O)Cn2nc(C(C)=O)c3cc(-c4cnc(C)nc4)ccc32)CN(C)C1=O [Compound T-96],> 6.00
15,CC(=O)c1nn(CC(=O)N2[C@H]3C[C@@]4(CCCCCCCN(C)Cc5ccc(Br)nc5NC3=O)C[C@@H]24)c2c(CF)cc(-c3cnc(C)nc3)cc12 [Compound T-97],> 6.00
16,CC(=O)c1nn(CC(=O)N2[C@H]3C[C@@]4(CCCCCCCN(C)Cc5ccc(Br)nc5NC3=O)C[C@@H]24)c2cnc(-c3cnc(C)nc3)cc12 [Compound T-98],> 6.00
17,CC(=O)c1nn2c3cc(c(-c4cnc(C)nc4)cc13)OCCCCCCCCCC[C@@]13C[C@@H](C(=O)Nc4nc(Br)ccc4C)N(C(=O)C2)[C@@H]1C3 [Compound T-99],> 6.00
18,CC(=O)c1nn2c3cc(c(-c4cnc(C)nc4)cc13)OCCCCCCCCC[C@@]13C[C@@H](C(=O)Nc4nc(Br)ccc4C)N(C(=O)C2)[C@@H]1C3 [Compound T-100],> 6.00
19,CC(=O)c1nn2c3c(cc(-c4cnc(C)nc4)cc13)CCCCC=CCOC[C@@]13C[C@@H](C(=O)Nc4nc(C(F)(F)F)ccc4C)N(C(=O)C2)[C@@H]1C3 [Compound T-101],> 6.00
20,CC(=O)c1nn2c3c(cc(-c4cnc(C)nc4)cc13)CCCCCCCOC[C@@]13C[C@@H](C(=O)Nc4nc(C(F)(F)F)ccc4C)N(C(=O)C2)[C@@H]1C3 [Compound T-102],> 6.00
21,CC(=O)N[C@H]1CC=CCOCc2ccc(Br)nc2NC(=O)[C@@H]2C[C@]3(C[C@H]3N2C(=O)Cn2nc(C(C)=O)c3cc(-c4cnc(C)nc4)ccc32)CN(C)C1=O [Compound T-103],> 6.00
22,CC(=O)c1nn(CC(=O)N2[C@H]3C[C@]4(C[C@@H]24)Cn2ccc(n2)C=CCCC(F)(F)c2ccc(Br)nc2NC3=O)c2ccc(-c3cnc(C)nc3)cc12 [Compound T-104],> 6.00
23,CC(=O)c1nn(CC(=O)N2[C@H]3C[C@]4(C[C@@H]24)Cn2ccc(n2)C=CCCC(F)(F)c2ccc(Br)nc2NC3=O)c2cnc(-c3cnc(C)nc3)cc12 [Compound T-105],> 6.00
24,CC(=O)c1nn(CC(=O)N2C[C@@]3(F)COCCCCCCCc4ccc(Br)nc4NC(=O)[C@@H]2C3)c2ccc(-c3cnc(C)nc3)cc12 [Compound T-106],> 6.00

row,Structure (SMILES),pIC50
1,CC(=O)c1nn(CC(=O)N2C[C@@]3(F)COCCCCCCCc4ccc(Br)nc4NC(=O)[C@@H]2C3)c2c(C)nc(-c3cnc(C)nc3)cc12 [Compound T-107],> 6.00
2,CC(=O)c1nn2c3c(cc(-c4cnc(C)nc4)cc13)CCCCCCCOC[C@@]13C[C@@H](C(=O)Nc4nc(Br)ccc4C)N(C(=O)C2)[C@@H]1C3 [Compound T-108],> 6.00
3,CC(=O)c1nn2c3c(cc(-c4cnc(C)nc4)cc13)CCCCCCCCCC[C@@]13C[C@@H](C(=O)Nc4nc(Br)ccc4C)N(C(=O)C2)[C@@H]1C3 [Compound T-109],> 6.00
4,CC(=O)c1nn(CC(=O)N2[C@H]3C[C@]4(C[C@@H]24)CN(C)CCCCCCCc2ccc(Br)nc2NC3=O)c2ccc(-c3cnc(C)nc3)cc12 [Compound T-110],> 6.00
5,CC(=O)c1nn2c3c(cc(-c4cnc(C)nc4)cc13)CCCCCCCCC[C@@]13C[C@@H](C(=O)Nc4nc(Br)ccc4C)N(C(=O)C2)[C@@H]1C3 [Compound T-111],> 6.00
6,CC(=O)c1nn(CC(=O)N2[C@H]3C[C@@]4(CNC(=O)C(C)(C)C=CCOCc5ccc(Br)nc5NC3=O)C[C@@H]24)c2cnc(-c3cnc(C)nc3)cc12 [Compound T-112],> 6.00
7,CC(=O)c1nn(CC(=O)N2[C@H]3C[C@@]4(Cc5nc(no5)C=CCOCc5ccc(Br)nc5NC3=O)C[C@@H]24)c2c(C)cc(-c3cnc(C)nc3)cc12 [Compound T-113],> 6.00
8,CC(=O)c1nn(CC(=O)N2[C@H]3C[C@@]4(CNC(=O)C(C)(C)CC=CCOCc5ccc(Br)nc5NC3=O)C[C@@H]24)c2cnc(-c3cnc(C)nc3)cc12 [Compound T-114],> 6.00
9,CC(=O)c1nn(CC(=O)N2[C@H]3C[C@@]4(CNC(=O)C(C)(C)CC=CCOCc5ccc(Br)nc5NC3=O)C[C@@H]24)c2ccc(-c3cnc(C)nc3)cc12 [Compound T-115],> 6.00
10,CC(=O)c1nn(CC(=O)N2[C@H]3C[C@@]4(CNC(=O)C(C)(C)CCCOCc5ccc(Br)nc5NC3=O)C[C@@H]24)c2cnc(-c3cnc(C)nc3)cc12 [Compound T-116],> 6.00
11,CC(=O)c1nn(CC(=O)N2[C@H]3C[C@@]4(CNC(=O)C(C)(C)CCCCOCc5ccc(Br)nc5NC3=O)C[C@@H]24)c2ccc(-c3cnc(C)nc3)cc12 [Compound T-117],> 6.00
12,CC(=O)c1nn(CC(=O)N2[C@H]3C[C@@]4(CNC(=O)C(C)(C)CCCCOCc5ccc(Br)nc5NC3=O)C[C@@H]24)c2cnc(-c3cnc(C)nc3)cc12 [Compound T-118],> 6.00
13,CC(=O)c1nn(CC(=O)N2[C@H]3C[C@@]4(CNC(=O)C(F)(F)CCCCOCc5ccc(Br)nc5NC3=O)C[C@@H]24)c2cnc(-c3cnc(C)nc3)cc12 [Compound T-119],> 6.00
14,CC(=O)c1nn(CC(=O)N2[C@H]3C[C@@]4(CNC(=O)C(F)(F)CCCCOCc5ccc(Br)nc5NC3=O)C[C@@H]24)c2ccc(-c3cnc(C)nc3)cc12 [Compound T-120],> 6.00
15,CC(=O)c1nn2c3c(cc(-c4cnc(C)nc4)cc13)C(O)C(O)CCCCCN(C)C[C@@]13C[C@@H](C(=O)Nc4nc(Br)ccc4C)N(C(=O)C2)[C@@H]1C3 (stereo partly drawn) [Compound T-121],> 6.00
16,CC(=O)c1nn2c3c(cc(-c4cnc(C)nc4)cc13)CCCCCCCN(C)C[C@@]13C[C@@H](C(=O)Nc4nc(Br)ccc4C)N(C(=O)C2)[C@@H]1C3 [Compound T-122],5.00 to 6.00
17,CC(=O)c1nn(CC(=O)N2[C@H]3C[C@]4(C[C@@H]24)CN2CCN(CCCOCc4ccc(Br)nc4NC3=O)CC2)c2ccc(-c3cnc(C)nc3)cc12 [Compound T-123],5.00 to 6.00
18,CC(=O)c1nn2c3c(cc(-c4cnc(C)nc4)cc13)CCCCCC(=O)N(C)C[C@@]13C[C@@H](C(=O)Nc4nc(C(F)(F)F)ccc4C)N(C(=O)C2)[C@@H]1C3 [Compound T-125],> 6.00
19,CC(=O)c1nn2c3c(nc(-c4cnc(C)nc4)cc13)C=CCCCC(=O)NC[C@@]13C[C@@H](C(=O)Nc4nc(C(F)(F)F)ccc4C)N(C(=O)C2)[C@@H]1C3 [Compound T-126],> 6.00
20,CC(=O)c1nn2c3c(cc(-c4cnc(C)nc4)cc13)CC=CCCCC(=O)NC[C@]1(F)C[C@@H](C(=O)Nc3nc(C(F)(F)F)ccc3C)N(C1)C(=O)C2 [Compound T-127],< 5.00
21,CC(=O)c1nn2c3c(cc(-c4cnc(C)nc4)cc13)CCCCCCC(=O)NC[C@]1(F)C[C@@H](C(=O)Nc3nc(C(F)(F)F)ccc3C)N(C1)C(=O)C2 [Compound T-128],> 6.00
22,CC(=O)c1nn2c3c(cc(-c4cnc(C)nc4)cc13)CCCCCC(=O)NC[C@]1(F)C[C@@H](C(=O)Nc3nc(C(F)(F)F)ccc3C)N(C1)C(=O)C2 [Compound T-129],5.00 to 6.00
23,CC(=O)c1nn(CC(=O)N2[C@H]3C[C@@]4(CNC(=O)C(C)(C)CCCOCc5ccc(Br)nc5NC3=O)C[C@@H]24)c2ccc(-c3cnc(C)nc3)cc12 [Compound T-130],> 6.00
24,CC(=O)c1nn(CC(=O)N2[C@H]3C[C@@]4(CNC(=O)C(C)(C)C=CCOCc5ccc(Br)nc5NC3=O)C[C@@H]24)c2ccc(-c3cnc(C)nc3)cc12 [Compound T-131],> 6.00
